How the values were obtained:
Conditions in all cases: 72 h
BV-173 [1] = assay: cell viability (% survival relative to DMSO control, bortezomib = 0%); higher = less cytotoxic
Summary of the method: (§1)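 Fifteen myeloid leukaemia cell lines were exposed to compounds at 1, 10, 100, 1000 or 10000 nM in 384-well plates for 72 h at 37 °C and 5% CO2. Viability was read by CellTiter-Glo luminescence and normalised, with vehicle as 100% and a 10 µM positive control as 0%. Values are percent survival averaged over duplicates.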

KCL-22 [2] = assay: as above
Summary of the method: as §1

SHI-1 [3] = assay: as above
Summary of the method: as §1

LAMA-84 [4] = assay: as above
Summary of the method: as §1

HL-60 [5] = assay: as above
Summary of the method: as §1

ML-2 [6] = assay: as above
Summary of the method: as §1

KG-1 [7] = assay: as above
Summary of the method: as §1

NOMO-1 [8] = assay: as above
Summary of the method: as §1

HEL [9] = assay: as above
Summary of the method: as §1

MV4-11 [10] = assay: as above
Summary of the method: as §1

K-562 [11] = assay: as above
Summary of the method: as §1

MOLM-13 [12] = assay: as above
Summary of the method: as §1

KU-812 [13] = assay: as above
Summary of the method: as §1

Mono-Mac-6 [14] = assay: as above
Summary of the method: as §1

THP-1 [15] = assay: as above
Summary of the method: as §1

BV-173 [16] = system: BV-173
Summary of the method: (§2)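 Fifteen myeloid leukaemia cell lines were seeded in RPMI 1640 at densities titrated to the linear growth range and placed in 384-well plates with acoustically pre-printed compounds at five tenfold doses from 1 to 10,000 nM, in duplicate. After 72 h at 37 °C with 5% CO2, luminescent ATP viability was normalised to vehicle and to a positive control at 10 µM, and curves were fitted with a four-parameter log-logistic model. The IC50 was obtained from these fits.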

KCL-22 [17] = system: KCL-22
Summary of the method: as §2

SHI-1 [18] = system: SHI-1
Summary of the method: as §2

LAMA-84 [19] = system: LAMA-84
Summary of the method: as §2

HL-60 [20] = system: HL-60
Summary of the method: as §2

ML-2 [21] = system: ML-2
Summary of the method: as §2

KG-1 [22] = system: KG-1
Summary of the method: as §2

NOMO-1 [23] = system: NOMO-1
Summary of the method: as §2

HEL [24] = system: HEL
Summary of the method: as §2

MV4-11 [25] = system: MV4-11
Summary of the method: as §2

K-562 [26] = system: K-562
Summary of the method: as §2

MOLM-13 [27] = system: MOLM-13
Summary of the method: as §2

KU-812 [28] = system: KU-812
Summary of the method: as §2

Mono-Mac-6 [29] = system: Mono-Mac-6
Summary of the method: as §2

THP-1 [30] = system: THP-1
Summary of the method: as §2

CN1CC(=O)N2[C@H](c3ccc4c(c3)OCO4)c3[nH]c4ccccc4c3C[C@@H]2C1=O [Tadalafil]
cell viability [%]
Conditions | 1 nM | 10 nM | 100 nM | 1000 nM | 10000 nM
BV-173 [1] | 95.5 | 87 | 89.6 | 96.8 | 88.3
HEL [9] | 103 | 77.5 | 93.1 | 98 | 94.7
HL-60 [5] | 106 | 75.2 | 107 | 72.9 | 117
K-562 [11] | 108 | 105 | 90.6 | 96.4 | 91
KCL-22 [2] | 103 | 89.2 | 92 | 101 | 81.7
KG-1 [7] | 107 | 98.4 | 99.8 | 103 | 99.4
KU-812 [13] | 98.8 | 87.8 | 99.2 | 106 | 96
LAMA-84 [4] | 101 | 97.9 | 96.8 | 102 | 103
ML-2 [6] | 95.6 | 94.1 | 92 | 101 | 94.9
MOLM-13 [12] | 106 | 85.3 | 98.4 | 97.9 | 73.3
MV4-11 [10] | 100 | 86.7 | 95.3 | 102 | 92.6
Mono-Mac-6 [14] | 99.8 | 93 | 94.8 | 95.4 | 99
NOMO-1 [8] | 97.8 | 95.1 | 96.6 | 105 | 108
SHI-1 [3] | 109 | 102 | 98.9 | 97.8 | 88.3
THP-1 [15] | 96.7 | 97.9 | 94.9 | 98.4 | 96.6

Conditions | IC50 (cell viability) [µM]
BV-173 [16] | > 10
HEL [24] | > 10
HL-60 [20] | > 10
K-562 [26] | > 10
KCL-22 [17] | > 10
KG-1 [22] | > 10
KU-812 [28] | > 10
LAMA-84 [19] | > 10
ML-2 [21] | > 10
MOLM-13 [27] | > 10
MV4-11 [25] | > 10
Mono-Mac-6 [29] | > 10
NOMO-1 [23] | > 10
SHI-1 [18] | > 10
THP-1 [30] | > 10

CN(C)CCNC(=O)c1cccn2c(=O)c3cc4ccccc4cc3nc12 [Bmh-21]
cell viability [%]
Conditions | 1 nM | 10 nM | 100 nM | 1000 nM | 10000 nM
BV-173 [1] | 105 | 98.6 | 95.8 | -0.204 | -0.415
HEL [9] | 110 | 93.8 | 93.8 | 8 | 0.459
HL-60 [5] | 102 | 108 | 93.6 | 107 | 77.7
K-562 [11] | 108 | 84.5 | 94.1 | 92.9 | 44.3
KCL-22 [2] | 115 | 113 | 98.7 | 0.317 | 0.85
KG-1 [7] | 104 | 101 | 104 | 9.79 | 0.81
KU-812 [13] | 98.1 | 105 | 108 | 15.5 | -0.163
LAMA-84 [4] | 103 | 107 | 95.2 | 21.2 | 1.47
ML-2 [6] | 111 | 106 | 99.4 | -0.0196 | -0.0121
MOLM-13 [12] | 123 | 92.6 | 102 | 87.6 | 22.1
MV4-11 [10] | 107 | 85.5 | 90.4 | 78.8 | 11.1
Mono-Mac-6 [14] | 89.8 | 101 | 106 | 0.313 | 0.0551
NOMO-1 [8] | 106 | 101 | 101 | 45.9 | -0.0945
SHI-1 [3] | 108 | 102 | 81.7 | 94 | 53.7
THP-1 [15] | 102 | 96.4 | 104 | 45.1 | -0.241

Conditions | IC50 (cell viability) [µM]
BV-173 [16] | 0.293
HEL [24] | 0.331
HL-60 [20] | > 10
K-562 [26] | 9.11
KCL-22 [17] | 0.312
KG-1 [22] | 0.407
KU-812 [28] | 0.479
LAMA-84 [19] | 0.486
ML-2 [21] | 0.314
MOLM-13 [27] | 2.38
MV4-11 [25] | 2.78
Mono-Mac-6 [29] | 0.347
NOMO-1 [23] | 0.923
SHI-1 [18] | > 10
THP-1 [30] | 0.91

O=NN(CCCl)C(=O)NCCCl [Carmustine]
cell viability [%]
Conditions | 1 nM | 10 nM | 100 nM | 1000 nM | 10000 nM
BV-173 [1] | 102 | 120 | 105 | 95.3 | 78.5
HEL [9] | 98.3 | 114 | 111 | 103 | 101
HL-60 [5] | 98.8 | 101 | 98.1 | 97.8 | 101
K-562 [11] | 95.1 | 123 | 75.8 | 111 | 101
KCL-22 [2] | 83.1 | 122 | 104 | 88.8 | 97.4
KG-1 [7] | 110 | 114 | 108 | 102 | 97.5
KU-812 [13] | 99.4 | 118 | 114 | 98.5 | 97.1
LAMA-84 [4] | 98.7 | 93.1 | 105 | 92.9 | 99.3
ML-2 [6] | 104 | 122 | 106 | 96 | 106
MOLM-13 [12] | 97.6 | 106 | 98.2 | 106 | 101
MV4-11 [10] | 96.3 | 104 | 103 | 106 | 83.4
Mono-Mac-6 [14] | 106 | 97.8 | 99.8 | 109 | 117
NOMO-1 [8] | 102 | 103 | 104 | 100 | 99
SHI-1 [3] | 87 | 109 | 97.6 | 128 | 104
THP-1 [15] | 97.6 | 107 | 102 | 101 | 98.9

Conditions | IC50 (cell viability) [µM]
BV-173 [16] | > 10
HEL [24] | > 10
HL-60 [20] | > 10
K-562 [26] | > 10
KCL-22 [17] | > 10
KG-1 [22] | > 10
KU-812 [28] | > 10
LAMA-84 [19] | > 10
ML-2 [21] | > 10
MOLM-13 [27] | > 10
MV4-11 [25] | > 10
Mono-Mac-6 [29] | > 10
NOMO-1 [23] | > 10
SHI-1 [18] | > 10
THP-1 [30] | > 10

Reference: the supplement of paper PMC8671470
